Experimental data reported in US9708336B2, “Metallo-beta-lactamase inhibitors” (priority 2014, dated 2017).
Like-named read-outs stand apart in the source and are kept apart here.

Key:
IMP-1 = IMP-1 (Serratia marcescens, UniProt P52699); test: biochemical; assay type: biochemical
VIM-1 = VIM-1 (Pseudomonas aeruginosa (strain ATCC 15692 / DSM 22644 / CIP 104116 / JCM 14847 / LMG 12228 / 1C / PRS 101 / PAO1), UniProt A0A0F7KYQ8); test: Enzyme activity: determination of IC50, fluorescence assay with CCF2-FA substrate (VIM-1); assay type: biochemical
[1] = test system: Serratia marcescens expressing IMP-1 (CL5741); test: Antibiotic potentiation activity: synergistic concentration (MITC95) with imipenem, OD600 growth; assay type: cell-based
How it was run: (§1)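 Overnight colonies (35 °C) were suspended in saline, diluted 1:100 into 1.1× CAMHB, and exposed to test compound with imipenem at 4 μg/ml (optionally 1 μg/ml) in assay. After 22–24 h at 35 °C, growth was read by absorbance.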

[2] = test system: Escherichia coli expressing NDM-1 (CLB30016); test: as above; assay type: cell-based
How it was run: as §1

[3] = test system: Klebsiella pneumoniae expressing VIM-1 (IHMA599644); test: as above; assay type: cell-based
How it was run: as §1

NDM-1 = NDM-1 (Klebsiella pneumoniae, UniProt C7C422); test: biochemical; assay type: biochemical
[4] = fluorescence assay with CCF2-FA substrate, read-out: IMP-1 IC50
[5] = CL5741 (IMP-1), 95% inhibition of bacterial growth
[6] = CLB30016 (NDM-1), 95% inhibition of bacterial growth
[7] = IHMA599644 (VIM-1), 95% inhibition of bacterial growth
[8] = fluorescence assay with CCF2-FA substrate, read-out: NDM-1 IC50
[9] = VIM-1 enzyme, CCF2-FA substrate, read-out: VIM-1 IC50
[10] = Serratia marcescens CL5741 (IMP-1), 95% growth inhibition
[11] = (CLB30016, NDM-1), 95% growth inhibition
[12] = Klebsiella pneumoniae IHMA599644 (VIM-1), 95% growth inhibition
[13] = IMP-1 enzyme, CCF2-FA fluorescence assay, read-out: IMP-1 IC50
[14] = VIM-1 enzyme, CCF2-FA fluorescence assay, read-out: VIM-1 IC50
[15] = Serratia marcescens expressing IMP-1 (CL5741), 95% growth inhibition
[16] = Escherichia coli expressing NDM-1 (CLB30016), 95% growth inhibition
[17] = Klebsiella pneumoniae expressing VIM-1 (IHMA599644), 95% growth inhibition
[18] = NDM-1 enzyme, CCF2-FA fluorescence assay, read-out: NDM-1 IC50
[19] = IMP-1 enzyme, CCF2-FA substrate, read-out: IMP-1 IC50
[20] = NDM-1 enzyme, CCF2-FA substrate, read-out: NDM-1 IC50

Chain of NDM-1 (C7C422 whole entry, looked up, species assumed): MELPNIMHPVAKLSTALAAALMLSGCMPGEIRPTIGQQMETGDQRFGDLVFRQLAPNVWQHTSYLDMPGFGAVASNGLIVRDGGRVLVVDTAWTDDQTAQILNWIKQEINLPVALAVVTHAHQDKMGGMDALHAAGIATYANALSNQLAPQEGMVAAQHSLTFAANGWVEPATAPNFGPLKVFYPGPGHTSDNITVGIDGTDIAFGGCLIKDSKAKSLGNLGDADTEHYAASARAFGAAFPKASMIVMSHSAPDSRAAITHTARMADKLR
Chain of IMP-1 (P52699 whole entry, looked up): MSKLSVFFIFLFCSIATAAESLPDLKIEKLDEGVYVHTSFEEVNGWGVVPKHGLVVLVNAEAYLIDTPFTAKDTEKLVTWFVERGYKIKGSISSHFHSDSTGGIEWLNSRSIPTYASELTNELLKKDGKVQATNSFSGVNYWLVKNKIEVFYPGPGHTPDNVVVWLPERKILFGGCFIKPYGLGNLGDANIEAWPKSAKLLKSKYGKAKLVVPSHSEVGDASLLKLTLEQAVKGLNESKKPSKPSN

Structure (SMILES)	IC50 (VIM-1; [9])	Serratia marcescens MITC95 [1, 10]	Escherichia coli MITC95 [2, 11]	Klebsiella pneumoniae MITC95 [3, 12]	IC50 (IMP-1; [13])	IC50 (VIM-1; [14])	Serratia marcescens MITC95 [1, 15]	Escherichia coli MITC95 [2, 16]	Klebsiella pneumoniae MITC95 [3, 17]	IC50 (NDM-1; [18])	IC50 (IMP-1; [19])	IC50 (NDM-1; [20])	other results
NCCC1CCC(N2CCC(c3ccc(-c4ccc(C(F)(F)F)c(S(N)(=O)=O)c4-c4nnn[nH]4)cc3)CC2)CC1 (stereo not drawn) [Example 792, 4′-{1-[4-(2-aminoethyl)cyclohexyl]piperidin-4-yl}-2-(1H-tetrazol-5-yl)-4-(trifluoromethyl)biphenyl-3-sulfonamide]													IC50 (IMP-1; [4]): 1.55 nM; IC50 (VIM-1; fluorescence assay with CCF2-FA substrate, read-out: VIM-1 IC50): 4.38 nM; Serratia marcescens MITC95 [1, 5]: 3.125 µM; Escherichia coli MITC95 [2, 6]: 3.125 µM; Klebsiella pneumoniae MITC95 [3, 7]: 25 µM; IC50 (NDM-1; [8]): 7.31 nM
Nc1ccc(CN[C@H]2CC[C@H](c3ccc(C(F)(F)F)c(S(N)(=O)=O)c3-c3nnn[nH]3)CC2)cn1 [Example 682, 3-(4-{[(6-aminopyridin-3-yl)methyl]amino}cyclohex-yl)-2-(1H-tetrazol-5-yl)-6-(trifluoromethyl)benzene sulfonamide]	0.684 nM	6.25 µM	6.25 µM	12.5 µM									IC50 (IMP-1): 27.4 nM; IC50 (NDM-1): 4.12 nM
NS(=O)(=O)c1cccc(-c2ccc(CNCCc3ncc[nH]3)cc2)c1-c1nnn[nH]1 [Example 382, 4′-({[2-(1H-imidazol-2-yl)ethyl]amino}methyl)-2-(1H-tetrazol-5-yl)biphenyl-3-sulfonamide]					212 nM	220 nM	3.125 µM	1.563 µM	50 µM	12.8 nM			
NS(=O)(=O)c1c(C(F)(F)F)ccc(-c2ccc(OC3CNC3)cc2)c1-c1nnn[nH]1 [Example 719, 4′-(azetidin-3-yloxy)-2-(1H-tetrazol-5-yl)-4-(trifluoromethyl)biphenyl-3-sulfonamide]		3.125 µM	3.125 µM	3.125 µM							3.68 nM	3.04 nM	IC50 (VIM-1; VIM-1 IC50, VIM-1 enzyme, CCF2-FA substrate): 0.553 nM
NS(=O)(=O)c1cccc(-c2cccc3ccoc23)c1-c1nn[nH]n1 [Example 522, 3-(Benzofuran-7-yl)-2-(2H-tetrazol-5-yl)benzenesulfonamide]	52.9 nM	18.75 µM	2.344 µM	50 µM							263 nM	3.4 nM	
Nc1nc(N)c2ccc(-c3ccc(C(F)(F)F)c(S(N)(=O)=O)c3-c3nnn[nH]3)cc2n1 [Example 750, 3-(2,4-diaminoquinazolin-7-yl)-2-(1H-tetrazol-5-yl)-6-(trifluoromethyl)benzenesulfon-amide]													IC50 (IMP-1; [4]): 21.5 nM; IC50 (VIM-1; VIM-1 IC50, fluorescence assay with CCF2-FA substrate): 0.432 nM; Serratia marcescens MITC95 [1, 5]: 6.25 µM; Escherichia coli MITC95 [2, 6]: 1.563 µM; Klebsiella pneumoniae MITC95 [3, 7]: 3.125 µM; IC50 (NDM-1; [8]): 4.75 nM
NCCCNc1nc2c(-c3cccc(S(N)(=O)=O)c3-c3nnn[nH]3)cccc2s1 [Example 643, 3-[2-(3-aminopropylamino)-1,3-benzothiazol-4-yl]-2-(1H-tetrazol-5-yl)benzenesulfonamide]	12.3 nM	25 µM	1.563 µM	25 µM							101 nM	2.34 nM	
NS(=O)(=O)c1c(Br)ccc(-c2ccc3c(c2)CNC3)c1-c1nn[nH]n1 [Example 272, 6-bromo-3-(isoindolin-5-yl)-2-(2H-tetrazol-5-yl)benzenesulfonamide]					49 nM	5.54 nM	1.563 µM	0.7813 µM	0.7813 µM	7.17 nM			
NS(=O)(=O)c1c(CC2CNC2)ccc(-c2ccc(C3CCNCC3)cc2)c1-c1nn[nH]n1 [Example 469, 4-(azetidin-3-ylmethyl)-4′-(piperidin-4-yl)-2-(2H-tetrazol-5-yl)-[1,1′-biphenyl]-3-sulfonamide]					29.7 nM	7.65 nM	1.563 µM	0.7813 µM	1.563 µM	10.7 nM			
